From patent US7704502B2, “Combinations of antibodies selective for DR5 and other therapeutic agents” (The UAB Research Foundation, priority 2000, dated 2010) come the findings set out here.

The subject of one data set is CLL B cells. Description: Apoptosis/cytotoxicity in CLL B cells in vitro. The class given is cell-based, human.
A further data set concerns the target T1, DR5 (Homo sapiens, UniProt O14763).
T1 construct: fusing cDNA from residues 1-180 of the extracellular portion of DR5; made in house; host or cells: QBI-293A cells, recombinant adenovirus (pAdΔDR5-Fc)
Description: ELISA binding of TRAIL and TRA-8 to the receptors. The source says: The reactions are developed by TMB substrate buffer and measured by the Benchmark Microplate Reader (BioRad). The Kd values are estimated by the one-site binding model of non-linear regression using GraphPad Prism® software (GraphPad Software, San Diego, Calif.).
A general note: An ELISA detects its analyte on a solid surface through an enzyme-linked reagent.

The target of a further data set is T2, DR4 (Homo sapiens, UniProt O00220).
T2 construct: a fusion protein comprising the extracellular domain of human DR5 or DR4 and the Fc region of human IgG1; human IgG1 Fc (Ig)
T2 sequence (O00220 24-239 limits assumed): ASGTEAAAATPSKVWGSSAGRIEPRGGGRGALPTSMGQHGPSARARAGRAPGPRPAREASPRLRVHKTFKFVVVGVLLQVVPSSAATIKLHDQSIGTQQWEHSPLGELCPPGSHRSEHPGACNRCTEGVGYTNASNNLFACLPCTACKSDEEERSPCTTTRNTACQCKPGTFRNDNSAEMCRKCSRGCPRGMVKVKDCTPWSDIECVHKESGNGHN
Nature of the data set: ELISA binding of TRAIL and TRA-8 to the receptors. On the procedure:
ELISA plates are coated with 2 μg/ml of DR4-Ig or DR5-Ig fusion protein overnight. […] The reactions are developed by TMB substrate buffer and measured by the Benchmark Microplate Reader (BioRad). The Kd values are estimated by the one-site binding model of non-linear regression using GraphPad Prism® software (GraphPad Software, San Diego, Calif.).

In data set [1] the test system is B lymphoma cell lines SKW6.4, EB-3, and Raji. Description: Apoptosis susceptibility (ATPLite, overnight). The class given is cell-based, human. Particulars: TRAIL plus crosslinker. How it is done: (§1) Cell viability is determined using (1) the ATPLite® kit according to the manufacturer's instructions (Packard Instruments, Meriden, Conn.); (2) the MTT Cell proliferation/viability kit (Sigma); or (3) PI staining of dead cells and analyzed by flow cytometry. At end of culture, cells are stained with 10 μg/ml PI and PI negative cells are gated as viable cells. For analysis of condensed nuclei of hepatocytes, cells are stained with 10 ng/ml Hoechst 33352 (Molecular Probes) and analyzed by flow cytometry.
(Cellular ATP, detected with luciferase, serves as a proxy for viable cell number.)

In a further data set the test system is Daudi. Nature of the data set: Apoptosis susceptibility (ATPLite, overnight). The conditions noted are these: TRAIL plus crosslinker. The class given is cell-based, human. How it is done:
as §1

The subject of another data set is H-9 cells. Description: Apoptosis susceptibility (ATPLite, overnight). The data set is classed as cell-based, human. The conditions noted are these: TRAIL plus crosslinker. How it is done:
as §1

A further data set deals with Jurkat and CEM-6. Nature of the data set: Apoptosis susceptibility (ATPLite, overnight). The data set is classed as cell-based, human. Particulars: TRAIL plus crosslinker. How it is done:
as §1

Another data set relates to Molt-4 and U937 cells. Nature of the data set: Apoptosis susceptibility (ATPLite, overnight). The conditions noted are these: TRAIL plus crosslinker. The class given is cell-based, human. On the procedure: as §1
The test system of data set [2] is Primary peripheral blood T cells. Description: Apoptosis susceptibility (ATPLite, overnight). The data set is classed as cell-based, human. Particulars: TRAIL plus crosslinker. On the procedure:
as §1

Another data set deals with U87, U937 and Molt-4. Description: Apoptosis susceptibility (ATPLite, overnight). The data set is classed as cell-based, human. How it is done: as §1
Data set [3] has as its system glioma cell lines Hs683 and U251-MG. Nature of the data set: Apoptosis susceptibility (ATPLite, overnight). The class given is cell-based, human. How it is done: as §1
Another data set deals with primary B cells. Nature of the data set: Apoptosis susceptibility (ATPLite, overnight). The class given is cell-based, human. Particulars: TRAIL plus crosslinker. How it is done:
as §1

The next data set deals with OA72M cells. Description: Apoptosis of primary synovial cells. The class given is cell-based, human. An excerpt:
(§2) Cell viability is the percentage of the cpm of treated cells versus the cpm of untreated cells.
(§3) The expression of DR5 on a panel of eight primary cultured synovial cells from patients with RA is compared with that on eight primary cultured synovial cells from patients with osteoarthritis (hereinafter referred to as “OA”). The eight human primary RA synovial cell cultures RA-1014, RA-1016, RA-1021, RA-512, RA-707, RA-811, RA-716, and RA-929 are kindly provided by Dr. M. Ohtsuki (Sankyo Co. Ltd., Tokyo, Japan) and cultured in DMEM supplemented with 10% FCS, penicillin, streptomycin, and glutamine. The […] OA synovial cell primary cell cultures are isolated from the synovial tissues of OA patients by a standard collagenase method and cultured under the same conditions. The passage number of all primary cells is under 10. The expression of DR5 is determined by FACs analysis as described in Example 5.

For data set [4], the system named is RA-1014, RA-811, RA-716, and RA929. Description: Apoptosis of primary synovial cells. The data set is classed as cell-based, human. Particulars: high concentrations (>50 ng/ml).
From the text: as §2, §3

The test system of data set [5] is SV40 transformed synovial cells. Description: Apoptosis of synovial cells. The class given is cell-based, human. Particulars: data not shown.
The test system of data set [6] is non-transformed fibroblast cells. Nature of the data set: Apoptosis of fibroblast cells. The data set is classed as cell-based.
The next data set relates to NF-κb. Nature of the data set: Gel-shift assay of NF-κb activation in RA synovial cells. The class given is cell-based, human. Particulars: 50 ng/ml TRAIL, Fas ligand or TRA-8; 20 ng/ml TNF-a. On the procedure:
There is considerable evidence to support the concept that there are close links between the signaling of apoptosis and the signaling of proliferation (45). It has been established that DR5 is able to activate a NF-kb pathway in addition to apoptosis signaling transduction, and that NF-κb activation may be able to transduce an anti-apoptosis signal. Therefore a gel-shift assay is carried out. […] The nuclear extracts are prepared and incubated with the […] [^32P]-labeled oligo-DNA probe. The results are analyzed using the cyclone phospha-imager (TopCount NXT, Packard Instrument Company, CT).

A further data set has as its system MMP-1, 3, and 13. Description: Production of MMPs by RA synovial cells (ELISA). The class given is cell-based, human. The conditions noted are these: overnight; 50 ng/ml interleukin 1b, 10 ng/ml TNF-a, 50 ng/ml TRAIL or TRA-8; vs medium control. How it is done:
Thus, it is possible that TRAIL, like TNF-α, may serve as a pro-inflammatory cytokine. […] The levels of the MMP-1 and MMP-3 in the culture supernatants are determined by the ELISA kits.

A further data set concerns normal human hepatocytes. Nature of the data set: Hepatocellular toxicity, cell viability (ATPLite). The class given is cell-based. The source says:
For 24-hour cell viability assays, fresh normal human hepatocytes in 96-well plates were purchased from In Vitro Technology (Baltimore, Md.). […] For 6-hour viability assays, normal hepatocytes or hepatocellular cancer cells are isolated from fresh surgical specimens collected from UAB Tissue Procurement Center. All reagents for isolation of human hepatocytes including hepatocytes perfusion buffer, digest medium, washing medium, and attachment medium were purchased from Gibco. The tissue slides are digested in the Hepatocyte Digest Medium at 37° C. with shaking (50 rpm) for one hour. The isolated hepatocytes are harvested by low speed centrifugation (50 g, 3 min), and washed with the Hepatocyte Washing Medium six times. Single cell suspension of hepatocytes are cultured in the Attachment Medium containing 10% FCS in 96-well Matrigel plates (BD) for six hours. Non-attached hepatocytes are removed by twice washing with pre-warmed attachment medium.

In another data set the test system is HepG2 cells. Nature of the data set: Cell viability (ATPLite). The class given is cell-based, human. The conditions noted are these: 8-hour culture period.
Data set [7] in a line: Induction of hepatitis in vivo by tetracycline-inducible adenoviral vectors. Particulars: 10 μg in Ad/TRAIL inoculated mice, AST at 24 hours. Further details: species or system B6 mice. How it is done: 8-10 week-old female B6 mice are intravenously injected with 10^9 pfu of Ad/hTRAIL with the equal number of Ad/Tet-on. Mice are fed with different concentrations of tetracycline in their drinking water immediately after inoculation of adenoviral vectors. Liver injury is determined by serum levels of AST using an AST diagnostic kit (Sigma). Expression of TRAIL is determined by Northern blot analysis.

The subject of a further data set is Jurkat cells. Nature of the data set: Apoptosis-inducing activity of humanized antibody (XTT, 12 hours). Particulars: serial 2-fold dilutions from 100 ng/ml. The class given is cell-based, human. How it is done: Jurkat cells cultured in RPMI1640 medium with 10% FCS (Gibco BRL) at 37° C. for 3 days in the presence of 5% CO2 are dispensed into each well of a 96-well microplate (Sumitomo Bakelite) at 50 μl per well. […] Each of the solutions of the expression products thus adjusted to 100 ng/ml is used to produce serial dilutions by repeating serial 2-fold dilution with RPM11640 containing 10% FCS. […] After reacting at 37° C. for 12 hours, 50 μl of 25 μM PMS (phenazine methosulfate; Sigma Chemical Co.) containing 1 mg/ml XTT (2,3-bis[2-methoxy-4-nitro-5-sulfophenyl]-2H-tetrazolium-5-carboxyaniride inner salt; Sigma Chemical Co.) is added (final concentrations of 250 μg/ml for XTT and 5 μM for PMS). After incubating for 3 hours, the absorbance at 450 nm of each well is measured to calculate the cell viability by using the reduction ability of mitochondria as the index.
The viability of the cells in each well is calculated according to the following formula: Viability(%)=100×(a−b)/(c−b) wherein “a” is the measurement of a test well, “b” is the measurement of a well with no cells, and “c” is the measurement of a well with no antibody added.

T1 sequence (O14763 56-180): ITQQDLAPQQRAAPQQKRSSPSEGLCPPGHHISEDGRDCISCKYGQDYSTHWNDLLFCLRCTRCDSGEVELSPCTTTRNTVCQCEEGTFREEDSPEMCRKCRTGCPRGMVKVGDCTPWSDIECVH

As to `Cn1cc(C2=C(c3cn(CCCN)c4ccccc34)C(=O)NC2=O)c2ccccc21` [BisVIII, Bisindolylmaleimide VIII], the “sensitivity to induced cytotoxicity” value in the data set on CLL B cells was “sensitive”.

With “TRAIL: soluble recombinant human TRAIL (aa 95 to 281) FLAG-tagged fusion protein, Alexis; used with anti-FLAG crosslinker”, the “binding to immobilized DR5” value with DR5 is “bound comparably”. For the same molecule, in the data set with DR4, the “binding to DR4” value is reported as “bound to DR4”. Moreover, the susceptibility to apoptosis result is reported as “very susceptible” in [1]; “much less susceptible” in the data set on Daudi; “resistant” in the data set on H-9 cells; “highly susceptible” in the data set with Jurkat and CEM-6; “partially susceptible” in the data set on Molt-4 and U937 cells; “resistant” in [2]. Also, the susceptibility to apoptosis result in the data set with U87, U937 and Molt-4 is given as “exhibited sensitivity”; in data set [3], “resistant”; in the data set with primary B cells, “did not undergo apoptosis”; with OA72M cells, “completely resistant”; in data set [5], “susceptible”; in [6], “resistant”. The cell death in [4] was roughly 100%. Besides, in the data set on NF-κb, the NF-κb activation result is reported as “activated in a time-dependent fashion”. For the same molecule, the “production/release of MMPs” value in the data set on MMP-1, 3, and 13 is given as “not associated with increased release”. Also, the “hepatocytes killed in the presence of cycloheximide” value in the data set on normal human hepatocytes (1 μg/ml TRAIL or TRA-8, 1 μg/ml cycloheximide, four-hour culture) is given as “greater than 70%”. The hepatocytes killed entry with normal human hepatocytes (1 μg/ml, end of 24-hour culture, TRAIL plus crosslinker) is “more than 80%”; in the data set with normal human hepatocytes (6-hour culture, 500 ng/ml) it was “Over 20%”. The cells killed in the data set on HepG2 cells was roughly 100%. Further, the “liver injury after intravenous injection” value in [7] is listed as “did not exhibit increased liver injury”.

B1: humanized TRA-8: humanized TRA-8 of Example 20, cotransfection of pHB14-1 and pSR/M2-1 (H2 heavy, LM2 light chain) (antibody)
VH: EVMLVESGGGLVQPGGSLRLSCAASGFTFSSYVMSWVRQAPGKGLEWVATISSGGSYTYYPDSVKGRFTISRDNAKNTLYLQMNSLRAEDTAVYYCARRGDSMITTDYWGQGTLVTVSS
light: DIVMTQSPSSLSASVGDRVTITCKASQDVGTAVAWYQQKPGKAPKLLIYWASTRHTGVPSRFSGSGSGTDFTLTISSLQPEDFATYYCQQYSSYRTFGQGTKVEIKRTVAAPSVFIFPPSDEQLKSGTASVVCLLNNFYPREAKVQWKVDNALQSGNSQESVTEQDSKDSTYSLSSTLTLSKADYEKHKVYACEVTHQGLSSPVTKSFNRGEC
Take B1: the induction of apoptosis entry in the data set on Jurkat cells is listed as “induce apoptosis”.
